What was measured:
Canis familiaris [1] = experiment: Diuretic effect in mongrel dog assessed as urinary excretion of water at 1 mg/kg, iv after 3 hrs (reference value: 0.93 +/- 0.35 ml/kg); type: functional, Canis lupus familiaris, Urine
Canis familiaris [2] = experiment: Diuretic effect in mongrel dog assessed as urinary excretion of Na+ at 1 mg/kg, iv after 3 hrs (reference value: 0.10 +/- 0.02 mequiv/kg); type: functional, Canis lupus familiaris, Urine
Canis familiaris [3] = experiment: Diuretic effect in mongrel dog assessed as urinary excretion of K+ at 1 mg/kg, iv after 3 hrs (reference value: 0.16 +/- 0.01 mequiv/kg); type: functional, Canis lupus familiaris, Urine
Canis familiaris [4] = experiment: Diuretic effect in mongrel dog assessed as urinary excretion of water at 0.25 mg/kg, po after 3 hrs (reference value: 0.93 +/- 0.35 ml/kg); type: functional, Canis lupus familiaris, Urine
Canis familiaris [5] = experiment: Diuretic effect in mongrel dog assessed as urinary excretion of Na+ at 0.25 mg/kg, po after 3 hrs (reference value: 0.10 +/- 0.02 mequiv/kg); type: functional, Canis lupus familiaris, Urine
Canis familiaris [6] = experiment: Diuretic effect in mongrel dog assessed as urinary excretion of K+ at 0.25 mg/kg, po after 3 hrs (reference value: 0.16 +/- 0.01 mequiv/kg); type: functional, Canis lupus familiaris, Urine
Canis familiaris [7] = experiment: Diuretic effect in mongrel dog assessed as urinary excretion of Cl- at 0.25 mg/kg, po after 3 hrs (reference value: 0.08 +/- 0.02 mequiv/kg); type: functional, Canis lupus familiaris, Urine
Canis familiaris [8] = experiment: Diuretic effect in mongrel dog assessed as urinary excretion of Cl- at 1 mg/kg, po after 3 hrs (reference value: 0.08 +/- 0.02 mequiv/kg)
Canis familiaris [9] = experiment: Diuretic effect in mongrel dog assessed as urinary excretion of water at 0.25 mg/kg, iv after 3 hrs (reference value: 0.93 +/- 0.35 ml/kg); type: functional, Canis lupus familiaris, Urine
Canis familiaris [10] = experiment: Diuretic effect in mongrel dog assessed as urinary excretion of water at 0.1 mg/kg, iv after 3 hrs (reference value: 0.93 +/- 0.35 ml/kg); type: functional, Canis lupus familiaris, Urine
Canis familiaris [11] = experiment: Diuretic effect in mongrel dog assessed as urinary excretion of Na+ at 0.25 mg/kg, iv after 3 hrs (reference value: 0.10 +/- 0.02 mequiv/kg); type: functional, Canis lupus familiaris, Urine
Canis familiaris [12] = experiment: Diuretic effect in mongrel dog assessed as urinary excretion of Na+ at 0.1 mg/kg, iv after 3 hrs (reference value: 0.10 +/- 0.02 mequiv/kg); type: functional, Canis lupus familiaris, Urine
Canis familiaris [13] = experiment: Diuretic effect in mongrel dog assessed as urinary excretion of K+ at 0.25 mg/kg, iv after 3 hrs (reference value: 0.16 +/- 0.01 mequiv/kg); type: functional, Canis lupus familiaris, Urine
Canis familiaris [14] = experiment: Diuretic effect in mongrel dog assessed as urinary excretion of K+ at 0.1 mg/kg, iv after 3 hrs (reference value: 0.16 +/- 0.01 mequiv/kg); type: functional, Canis lupus familiaris, Urine
Canis familiaris [15] = experiment: Diuretic effect in mongrel dog assessed as urinary excretion of Cl- at 0.25 mg/kg, iv after 3 hrs (reference value: 0.08 +/- 0.02 mequiv/kg); type: functional, Canis lupus familiaris, Urine
Canis familiaris [16] = experiment: Diuretic effect in mongrel dog assessed as urinary excretion of Cl- at 0.1 mg/kg, iv after 3 hrs (reference value: 0.08 +/- 0.02 mequiv/kg); type: functional, Canis lupus familiaris, Urine
Canis familiaris [17] = experiment: Diuretic effect in mongrel dog assessed as urinary excretion of Na+ at 0.01 mg/kg, po after 3 hrs (reference value: 0.10 +/- 0.02 mequiv/kg); type: functional, Canis lupus familiaris, Urine
Canis familiaris [18] = experiment: Diuretic effect in mongrel dog assessed as urinary excretion of K+ at 0.01 mg/kg, po after 3 hrs (reference value: 0.16 +/- 0.01 mequiv/kg); type: functional, Canis lupus familiaris, Urine
Canis familiaris [19] = experiment: Diuretic effect in mongrel dog assessed as urinary excretion of Cl- at 0.01 mg/kg, po after 3 hrs (reference value: 0.08 +/- 0.02 mequiv/kg); type: functional, Canis lupus familiaris, Urine
Canis familiaris [20] = experiment: Diuretic effect in mongrel dog assessed as urinary excretion of water at 0.01 mg/kg, iv after 3 hrs (reference value: 0.93 +/- 0.35 ml/kg)
Canis familiaris [21] = experiment: Diuretic effect in mongrel dog assessed as urinary excretion of water at 5 mg/kg, iv after 3 hrs (reference value: 0.93 +/- 0.35 ml/kg); type: functional, Canis lupus familiaris, Urine
Canis familiaris [22] = experiment: Diuretic effect in mongrel dog assessed as urinary excretion of Na+ at 5 mg/kg, po after 3 hrs (reference value: 0.10 +/- 0.02 mequiv/kg); type: functional, Canis lupus familiaris, Urine
Canis familiaris [23] = experiment: Diuretic effect in mongrel dog assessed as urinary excretion of Na+ at 5 mg/kg, iv after 3 hrs (reference value: 0.10 +/- 0.02 mequiv/kg); type: functional, Canis lupus familiaris, Urine
Canis familiaris [24] = experiment: Diuretic effect in mongrel dog assessed as urinary excretion of Na+ at 1 mg/kg, po after 3 hrs (reference value: 0.10 +/- 0.02 mequiv/kg); type: functional, Canis lupus familiaris, Urine
Canis familiaris [25] = experiment: Diuretic effect in mongrel dog assessed as urinary excretion of K+ at 5 mg/kg, iv after 3 hrs (reference value: 0.16 +/- 0.01 mequiv/kg); type: functional, Canis lupus familiaris, Urine
Canis familiaris [26] = experiment: Diuretic effect in mongrel dog assessed as urinary excretion of Cl- at 1 mg/kg, iv after 3 hrs (reference value: 0.08 +/- 0.02 mequiv/kg); type: functional, Canis lupus familiaris, Urine
Canis familiaris [27] = experiment: Diuretic effect in mongrel dog assessed as urinary excretion of Cl- at 5 mg/kg, iv after 3 hrs (reference value: 0.08 +/- 0.02 mequiv/kg); type: functional, Canis lupus familiaris, Urine
Canis familiaris [28] = experiment: Diuretic effect in mongrel dog assessed as urinary excretion of water at 1 mg/kg, po after 3 hrs (reference value: 0.93 +/- 0.35 ml/kg); type: functional, Canis lupus familiaris, Urine
Canis familiaris [29] = experiment: Diuretic effect in mongrel dog assessed as urinary excretion of water at 5 mg/kg, po after 3 hrs (reference value: 0.93 +/- 0.35 ml/kg); type: functional, Canis lupus familiaris, Urine
Canis familiaris [30] = experiment: Diuretic effect in mongrel dog assessed as urinary excretion of water at 1 mg/kg, po after 6 hrs (reference value: 1.73 +/- 0.46 ml/kg); type: functional, Canis lupus familiaris, Urine
Canis familiaris [31] = experiment: Diuretic effect in mongrel dog assessed as urinary excretion of water at 0.25 mg/kg, po after 6 hrs (reference value: 1.73 +/- 0.46 ml/kg); type: functional, Canis lupus familiaris, Urine
Canis familiaris [32] = experiment: Diuretic effect in mongrel dog assessed as urinary excretion of Na+ at 1 mg/kg, po after 6 hrs (reference value: 0.27 +/- 0.09 mequiv/kg); type: functional, Canis lupus familiaris, Urine
Canis familiaris [33] = experiment: Diuretic effect in mongrel dog assessed as urinary excretion of Na+ at 0.25 mg/kg, po after 6 hrs (reference value: 0.27 +/- 0.09 mequiv/kg); type: functional, Canis lupus familiaris, Urine
Canis familiaris [34] = experiment: Diuretic effect in mongrel dog assessed as urinary excretion of K+ at 1 mg/kg, po after 3 hrs (reference value: 0.16 +/- 0.01 mequiv/kg); type: functional, Canis lupus familiaris, Urine
Canis familiaris [35] = experiment: Diuretic effect in mongrel dog assessed as urinary excretion of K+ at 5 mg/kg, po after 3 hrs (reference value: 0.16 +/- 0.01 mequiv/kg); type: functional, Canis lupus familiaris, Urine
Canis familiaris [36] = experiment: Diuretic effect in mongrel dog assessed as urinary excretion of K+ at 1 mg/kg, po after 6 hrs (reference value: 0.24 +/- 0.03 mequiv/kg); type: functional, Canis lupus familiaris, Urine
Canis familiaris [37] = experiment: Diuretic effect in mongrel dog assessed as urinary excretion of K+ at 0.25 mg/kg, po after 6 hrs (reference value: 0.24 +/- 0.03 mequiv/kg); type: functional, Canis lupus familiaris, Urine
Canis familiaris [38] = experiment: Diuretic effect in mongrel dog assessed as urinary excretion of Cl- at 1 mg/kg, po after 3 hrs (reference value: 0.08 +/- 0.02 mequiv/kg); type: functional, Canis lupus familiaris, Urine
Canis familiaris [39] = experiment: Diuretic effect in mongrel dog assessed as urinary excretion of Cl- at 5 mg/kg, po after 3 hrs (reference value: 0.08 +/- 0.02 mequiv/kg); type: functional, Canis lupus familiaris, Urine
Canis familiaris [40] = experiment: Diuretic effect in mongrel dog assessed as urinary excretion of Cl- at 1 mg/kg, po after 6 hrs (reference value: 0.17 +/- 0.09 mequiv/kg); type: functional, Canis lupus familiaris, Urine
Canis familiaris [41] = experiment: Diuretic effect in mongrel dog assessed as urinary excretion of Cl- at 0.25 mg/kg, iv after 3 hrs (reference value: 0.08 +/- 0.02 mequiv/kg)

CCCCSc1cc(C(=O)O)cc(NC=O)c1C(=O)c1ccccc1
Activity (Canis familiaris [1]): 21 mL/kg | Activity (Canis familiaris [2]): 2.3 milliequivalent/kg | Activity (Canis familiaris [3]): 0.65 milliequivalent/kg | Activity (Canis familiaris [4]): 17 mL/kg | Activity (Canis familiaris [5]): 0.5 milliequivalent/kg | Activity (Canis familiaris [6]): 0.28 milliequivalent/kg | Activity (Canis familiaris [7]): 0.6 milliequivalent/kg | Activity (Canis familiaris [8]): 2.1 milliequivalent/kg

CCCCNc1cc(C(=O)O)cc(S(N)(=O)=O)c1Oc1ccccc1 [BUMETANIDE]
Activity (Canis familiaris [9]): 39 mL/kg | Activity (Canis familiaris [10]): 26 mL/kg | Activity (Canis familiaris [11]): 4 milliequivalent/kg | Activity (Canis familiaris [12]): 2.4 milliequivalent/kg | Activity (Canis familiaris [13]): 0.84 milliequivalent/kg | Activity (Canis familiaris [14]): 0.44 milliequivalent/kg | Activity (Canis familiaris [15]): 5.7 milliequivalent/kg | Activity (Canis familiaris [16]): 3.5 milliequivalent/kg | Activity (Canis familiaris [17]): 0.92 milliequivalent/kg | Activity (Canis familiaris [18]): 0.27 milliequivalent/kg | Activity (Canis familiaris [19]): 1.4 milliequivalent/kg | Activity (Canis familiaris [20]): 10 mL/kg

O=CNc1cc(C(=O)O)cc(OCc2ccccc2)c1C(=O)c1ccccc1
Activity (Canis familiaris [1]): 9 mL/kg | Activity (Canis familiaris [10]): 9 mL/kg | Activity (Canis familiaris [21]): 21 mL/kg | Activity (Canis familiaris [22]): 3.1 milliequivalent/kg | Activity (Canis familiaris [2]): 1.1 milliequivalent/kg | Activity (Canis familiaris [12]): 1 milliequivalent/kg | Activity (Canis familiaris [23]): 2.2 milliequivalent/kg | Activity (Canis familiaris [24]): 2.5 milliequivalent/kg | Activity (Canis familiaris [3]): 0.49 milliequivalent/kg | Activity (Canis familiaris [14]): 0.24 milliequivalent/kg | Activity (Canis familiaris [25]): 0.63 milliequivalent/kg | Activity (Canis familiaris [26]): 3.1 milliequivalent/kg | Activity (Canis familiaris [16]): 1.3 milliequivalent/kg | Activity (Canis familiaris [27]): 4.5 milliequivalent/kg | Activity (Canis familiaris [28]): 21 mL/kg | Activity (Canis familiaris [29]): 33 mL/kg | Activity (Canis familiaris [30]): 22 mL/kg | Activity (Canis familiaris [31]): 18 mL/kg | Activity (Canis familiaris [32]): 2.5 milliequivalent/kg | Activity (Canis familiaris [33]): 2.1 milliequivalent/kg | Activity (Canis familiaris [34]): 0.51 milliequivalent/kg | Activity (Canis familiaris [35]): 1.09 milliequivalent/kg | Activity (Canis familiaris [36]): 0.49 milliequivalent/kg | Activity (Canis familiaris [37]): 0.41 milliequivalent/kg | Activity (Canis familiaris [38]): 3.3 milliequivalent/kg | Activity (Canis familiaris [39]): 4.5 milliequivalent/kg | Activity (Canis familiaris [40]): 3.3 milliequivalent/kg | Activity (Canis familiaris [41]): 2.6 milliequivalent/kg

Source: ChEMBL document CHEMBL3272011, “Aminobenzoic acid diuretics. 9. 3,4-Disubstituted 5-acylaminobenzoic acids and related compounds” (1977)
